# Test results reported in ChEMBL document CHEMBL1201862, “PubChem BioAssay data set” (2004).
# Active and inactive are the calls of the source.
# Columns and labels:
# [1] = biological target: Genome polyprotein (Hepatitis C virus, UniProt Q2Q167); assay: disruption of hepatitis C core self-association – biochemical, TR-FRET, dose response (AID 2159); design: species or system Hepacivirus hominis;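 further: blocks dimerization of HCV core protein measured by TR-FRET between tagged core106 pairs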
# [2] = biological target: T1, Fatty acid synthase (Homo sapiens, UniProt P49327); assay: inhibition of human FAS-TE enzyme activity – biochemical, endpoint fluorescence intensity, uHTS hits, dose response (AID 624327); type: functional;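 further: fluorescence from hydrolysis of an O-methyl fluorescein acyl ester substrate by the enzyme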
# T1 sequence (P49327 whole entry): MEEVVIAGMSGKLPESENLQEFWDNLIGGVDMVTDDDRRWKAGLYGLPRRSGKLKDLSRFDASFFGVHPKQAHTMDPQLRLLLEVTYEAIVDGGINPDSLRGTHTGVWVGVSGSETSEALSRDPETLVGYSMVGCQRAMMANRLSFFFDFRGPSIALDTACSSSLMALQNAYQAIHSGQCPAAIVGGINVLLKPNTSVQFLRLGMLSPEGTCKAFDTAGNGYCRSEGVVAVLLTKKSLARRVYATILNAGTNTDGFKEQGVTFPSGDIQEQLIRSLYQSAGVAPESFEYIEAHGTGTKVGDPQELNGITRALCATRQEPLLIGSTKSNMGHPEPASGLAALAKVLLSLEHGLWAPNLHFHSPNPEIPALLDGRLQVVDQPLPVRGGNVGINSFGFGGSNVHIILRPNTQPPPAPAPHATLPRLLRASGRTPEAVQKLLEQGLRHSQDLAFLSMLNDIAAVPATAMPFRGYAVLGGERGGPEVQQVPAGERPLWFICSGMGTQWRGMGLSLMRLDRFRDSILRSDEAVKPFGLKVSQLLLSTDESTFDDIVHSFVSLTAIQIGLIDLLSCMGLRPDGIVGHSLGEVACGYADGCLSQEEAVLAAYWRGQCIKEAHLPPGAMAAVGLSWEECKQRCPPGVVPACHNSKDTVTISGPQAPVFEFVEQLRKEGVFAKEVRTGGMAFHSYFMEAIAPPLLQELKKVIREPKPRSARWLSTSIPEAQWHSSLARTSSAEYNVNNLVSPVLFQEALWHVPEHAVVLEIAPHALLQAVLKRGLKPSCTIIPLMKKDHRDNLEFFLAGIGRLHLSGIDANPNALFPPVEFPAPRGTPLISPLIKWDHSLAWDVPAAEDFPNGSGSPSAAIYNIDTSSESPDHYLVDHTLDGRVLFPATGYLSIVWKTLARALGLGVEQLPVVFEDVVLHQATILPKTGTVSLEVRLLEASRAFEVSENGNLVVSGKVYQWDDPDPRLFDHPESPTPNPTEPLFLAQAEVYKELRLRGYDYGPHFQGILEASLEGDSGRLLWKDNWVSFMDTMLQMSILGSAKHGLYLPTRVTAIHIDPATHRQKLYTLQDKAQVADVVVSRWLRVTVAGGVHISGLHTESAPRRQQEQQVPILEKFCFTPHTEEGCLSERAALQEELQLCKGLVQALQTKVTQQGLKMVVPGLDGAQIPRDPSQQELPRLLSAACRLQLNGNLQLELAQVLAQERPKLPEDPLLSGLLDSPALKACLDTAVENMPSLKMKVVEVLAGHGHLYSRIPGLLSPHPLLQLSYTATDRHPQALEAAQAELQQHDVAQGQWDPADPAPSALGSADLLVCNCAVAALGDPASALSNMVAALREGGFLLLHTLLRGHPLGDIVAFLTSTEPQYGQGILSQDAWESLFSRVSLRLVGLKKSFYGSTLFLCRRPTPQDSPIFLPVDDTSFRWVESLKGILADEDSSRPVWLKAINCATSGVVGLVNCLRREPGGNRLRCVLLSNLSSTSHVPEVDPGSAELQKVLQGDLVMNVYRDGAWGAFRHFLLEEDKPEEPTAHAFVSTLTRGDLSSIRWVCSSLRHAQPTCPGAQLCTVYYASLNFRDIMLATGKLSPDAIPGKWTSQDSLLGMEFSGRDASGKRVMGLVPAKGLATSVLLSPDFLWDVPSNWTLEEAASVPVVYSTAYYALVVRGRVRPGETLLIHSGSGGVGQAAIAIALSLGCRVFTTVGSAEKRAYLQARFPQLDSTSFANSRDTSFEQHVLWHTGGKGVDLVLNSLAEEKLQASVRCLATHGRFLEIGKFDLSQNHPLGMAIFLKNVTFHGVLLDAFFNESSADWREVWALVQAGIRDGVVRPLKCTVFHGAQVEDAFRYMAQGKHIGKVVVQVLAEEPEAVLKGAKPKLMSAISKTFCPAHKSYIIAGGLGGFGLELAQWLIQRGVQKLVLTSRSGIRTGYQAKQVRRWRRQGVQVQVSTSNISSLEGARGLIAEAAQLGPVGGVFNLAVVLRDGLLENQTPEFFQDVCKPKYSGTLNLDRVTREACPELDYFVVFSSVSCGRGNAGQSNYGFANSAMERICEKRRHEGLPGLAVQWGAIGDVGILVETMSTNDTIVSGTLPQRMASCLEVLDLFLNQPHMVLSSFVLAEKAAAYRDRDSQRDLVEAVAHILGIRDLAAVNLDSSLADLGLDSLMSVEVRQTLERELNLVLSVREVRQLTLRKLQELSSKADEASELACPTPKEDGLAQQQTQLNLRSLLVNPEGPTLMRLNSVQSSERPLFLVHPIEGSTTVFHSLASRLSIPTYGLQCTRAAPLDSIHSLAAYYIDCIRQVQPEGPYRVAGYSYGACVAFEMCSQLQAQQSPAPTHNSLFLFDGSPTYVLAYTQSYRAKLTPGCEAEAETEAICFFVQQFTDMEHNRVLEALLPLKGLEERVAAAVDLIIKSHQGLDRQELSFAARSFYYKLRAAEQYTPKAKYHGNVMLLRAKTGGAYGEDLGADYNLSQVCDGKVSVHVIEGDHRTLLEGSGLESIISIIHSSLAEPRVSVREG
# [3] = biological target: T1, Fatty acid synthase; assay: inhibition of human FAS-TE enzyme activity – biochemical, kinetic fluorescence intensity, dose response (AID 624326); type: functional;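 further: rate of fluorescence rise from hydrolysis of a fluorogenic O-methyl fluorescein ester substrate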
# [4] = biological target: Voltage-gated inwardly rectifying potassium channel KCNH2 (Homo sapiens, UniProt Q12809); assay: concentration-dependent hERG rescue from blockers – cell-based, thallium flux, dose response (AID 2121); type: ADME
# [5] = biological target: T2, E3 ubiquitin-protein ligase XIAP (Homo sapiens, UniProt P98170); assay: small molecules displacing peptide from XIAP – biochemical, IAP family, fluorescence polarization (AID 1018); type: functional
# T2 sequence (P98170 whole entry): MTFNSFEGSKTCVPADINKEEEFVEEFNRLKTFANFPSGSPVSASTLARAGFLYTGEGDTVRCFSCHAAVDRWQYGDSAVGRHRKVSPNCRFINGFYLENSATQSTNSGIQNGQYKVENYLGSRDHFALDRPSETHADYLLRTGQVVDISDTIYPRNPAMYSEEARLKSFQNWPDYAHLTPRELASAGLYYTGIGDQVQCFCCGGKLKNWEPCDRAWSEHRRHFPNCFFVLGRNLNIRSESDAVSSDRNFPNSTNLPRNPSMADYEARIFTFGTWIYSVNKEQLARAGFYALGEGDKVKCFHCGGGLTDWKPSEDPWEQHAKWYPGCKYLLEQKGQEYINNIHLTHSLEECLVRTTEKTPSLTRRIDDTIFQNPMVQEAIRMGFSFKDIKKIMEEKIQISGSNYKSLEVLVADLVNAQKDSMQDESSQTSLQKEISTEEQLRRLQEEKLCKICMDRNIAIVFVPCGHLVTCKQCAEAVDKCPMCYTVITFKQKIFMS
# [6] = tested on: H9c2; assay: cells; type: functional, cell-based; settings: Rattus norvegicus, H9c2, Myocardium;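 further: confirmatory concentration-response retest of ultra-high-throughput screening hits for modulation of myocardial damage; cell death induced by hydrogen peroxide oxidative stress; compound pretreatment for 60 min then peroxide exposure for 2 h; potency is for protecting the cells against peroxide damage rather than for killing them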
# [7] = biological target: T2, E3 ubiquitin-protein ligase XIAP; assay: Counter Screen using XIAP-Bir3 for Chemical Antagonists of Bir1/2 domains of IAP-family anti-apoptotic proteins. [Related pubchem assays (depositor defined):AID1018, AID1449, AID1514, AID1638, AID1749, AID1750, AID488957, AID488963]
# [8] = biological target: T3, Protein skinhead-1 (Caenorhabditis elegans, UniProt P34707); type: functional
# T3 sequence (P34707 whole entry): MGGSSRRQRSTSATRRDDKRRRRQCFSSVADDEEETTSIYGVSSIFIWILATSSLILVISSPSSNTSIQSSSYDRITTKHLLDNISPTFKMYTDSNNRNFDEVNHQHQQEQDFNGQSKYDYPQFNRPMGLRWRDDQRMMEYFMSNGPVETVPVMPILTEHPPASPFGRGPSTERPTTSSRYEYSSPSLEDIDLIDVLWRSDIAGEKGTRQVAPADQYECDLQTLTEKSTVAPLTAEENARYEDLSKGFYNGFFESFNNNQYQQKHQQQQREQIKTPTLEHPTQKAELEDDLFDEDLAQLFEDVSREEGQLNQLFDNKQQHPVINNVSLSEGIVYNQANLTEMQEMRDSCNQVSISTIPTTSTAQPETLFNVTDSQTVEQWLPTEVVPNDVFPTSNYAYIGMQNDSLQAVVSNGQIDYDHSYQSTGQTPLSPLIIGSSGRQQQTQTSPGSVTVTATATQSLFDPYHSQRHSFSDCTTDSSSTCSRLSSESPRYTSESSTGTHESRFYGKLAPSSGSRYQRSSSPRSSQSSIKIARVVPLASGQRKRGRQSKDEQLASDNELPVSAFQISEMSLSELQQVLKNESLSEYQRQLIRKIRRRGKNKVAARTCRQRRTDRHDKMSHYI
# [9] = biological target: Transitional endoplasmic reticulum ATPase (Homo sapiens, UniProt P55072, C522A); assay: Luminescence counterscreen assay for p97 inhibitors: dose response biochemical high throughput screening assay to identify inhibitors of the C522A mutant p97 ATPase: synthesized compounds. [Related pubchem assays: 1481, 1517, 1551 ]
# [10] = biological target: Transitional endoplasmic reticulum ATPase (Homo sapiens, UniProt P55072); assay: Luminescence dose response biochemical high throughput screening assay for inhibitors of the p97 ATPase: synthesized compounds. [Related pubchem assays: 1481, 1517 ]
# [11] = biological target: Sphingosine 1-phosphate receptor 2 (Homo sapiens, UniProt O95136); assay: Dose Response Cell Based Assay for Agonists of the S1P2 Receptor of Purchased Analogues. [Related pubchem assays: 729, 843, 854, 736 ]; type: functional
# [12] = tested on: Vero; assay: viability of Vero cells under compound – cytotoxicity control for flavivirus capping enzyme inhibitors (AID 588742); type: functional; settings: Chlorocebus sabaeus
# [13] = biological target: T4, Mannose-6-phosphate isomerase (Homo sapiens, UniProt P34949); assay: MPI enzyme activity inhibition – biochemical, fluorescence intensity, coupled assay, primary screen (AID 1209)
# T4 sequence (P34949 whole entry): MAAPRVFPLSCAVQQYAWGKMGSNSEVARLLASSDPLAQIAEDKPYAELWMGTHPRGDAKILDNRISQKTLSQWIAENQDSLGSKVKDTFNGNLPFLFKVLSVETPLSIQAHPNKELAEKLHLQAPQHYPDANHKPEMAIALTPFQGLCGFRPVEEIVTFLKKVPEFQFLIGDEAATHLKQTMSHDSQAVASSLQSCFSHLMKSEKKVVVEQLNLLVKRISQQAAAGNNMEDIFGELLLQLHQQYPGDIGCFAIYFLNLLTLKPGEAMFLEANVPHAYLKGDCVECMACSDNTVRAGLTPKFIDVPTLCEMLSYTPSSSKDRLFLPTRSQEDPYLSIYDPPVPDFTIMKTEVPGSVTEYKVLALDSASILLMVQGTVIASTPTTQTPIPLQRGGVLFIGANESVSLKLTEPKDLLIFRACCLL
# [14] = biological target: Protein Tat (Human immunodeficiency virus type 1 group M subtype B (isolate HXB2)(HIV-1), UniProt P04608); type: functional;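 further: tat binding to TAR RNA read out by fluorescence polarization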
# Sequence of Protein Tat (P04608 whole entry): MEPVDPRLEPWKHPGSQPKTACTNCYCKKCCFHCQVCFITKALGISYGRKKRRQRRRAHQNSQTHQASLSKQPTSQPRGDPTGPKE
# [15] = NIH-3T3 fibroblast cytotoxicity, dose response, cytotoxicity control, cell-based, fluorescence, Alamar Blue, secondary assay (AID 2327); type: functional;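 further: NIH-3T3 mouse fibroblasts cultured with fluconazole at 8 µg/mL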
# [16] = viability loss in THP-1 monocytes – THP-1 cells, cytotoxicity control for Vif-APOBEC3G degradation inhibitor project, dose response (AID 1117359); type: functional; settings: THP-1
# [17] = biological target: Eukaryotic translation initiation factor 4H (Homo sapiens, UniProt Q15056); assay: eIF4H binding inhibition – biochemical, uHTS, fluorescence polarization, translation initiation inhibitor project, primary screen (AID 2012)
# [18] = Luminescence Cell-Based Dose Confirmation HTS to Identify Inhibitors of Platelet Dense Granule Release. [Related pubchem assays: 1663 (Primary HTS), 1678 (Summary of Project)]; type: functional
# [19] = biological target: Induced myeloid leukemia cell differentiation protein Mcl-1 (Homo sapiens, UniProt Q07820); type: functional
# Sequence of Induced myeloid leukemia cell differentiation protein Mcl-1 (Q07820 whole entry): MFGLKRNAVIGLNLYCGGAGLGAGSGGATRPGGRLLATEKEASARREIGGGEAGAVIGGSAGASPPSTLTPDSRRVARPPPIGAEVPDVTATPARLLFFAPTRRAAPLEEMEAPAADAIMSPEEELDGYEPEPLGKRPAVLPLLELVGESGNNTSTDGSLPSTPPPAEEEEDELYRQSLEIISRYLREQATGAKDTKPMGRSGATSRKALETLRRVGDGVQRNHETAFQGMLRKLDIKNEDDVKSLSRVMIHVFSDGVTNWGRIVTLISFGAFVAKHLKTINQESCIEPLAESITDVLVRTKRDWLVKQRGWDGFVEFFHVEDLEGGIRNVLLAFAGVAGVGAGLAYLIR
# [20] = biological target: Polyadenylate-binding protein 1 (Homo sapiens, UniProt P11940); assay: blockers of PABP interaction with poly(A) – biochemical, fluorescence polarization, […] (AID 2014)
# [21] = biological target: Genome polyprotein (dengue virus type 2, UniProt P29990); assay: flavivirus cap methylation enzyme inhibition – biochemical, confirmation dose response, primary screen (AID 588689); type: functional
# [22] = fluconazole-exposed Candida albicans growth modulators – fluorescence, retest, confirmation (AID 2467); type: functional, cell-based
# [23] = viability loss in Vero cells – cytotoxicity control for Vif-APOBEC3G degradation inhibitor project, dose response (AID 1117358); type: functional; settings: Vero
# [24] = biological target: Luciferin 4-monooxygenase (Photinus pyralis, UniProt P08659); assay: inhibition of purified Photinus pyralis luciferase – biochemical, luminescence, dose response (AID 1891)
# Sequence of Luciferin 4-monooxygenase (P08659 whole entry): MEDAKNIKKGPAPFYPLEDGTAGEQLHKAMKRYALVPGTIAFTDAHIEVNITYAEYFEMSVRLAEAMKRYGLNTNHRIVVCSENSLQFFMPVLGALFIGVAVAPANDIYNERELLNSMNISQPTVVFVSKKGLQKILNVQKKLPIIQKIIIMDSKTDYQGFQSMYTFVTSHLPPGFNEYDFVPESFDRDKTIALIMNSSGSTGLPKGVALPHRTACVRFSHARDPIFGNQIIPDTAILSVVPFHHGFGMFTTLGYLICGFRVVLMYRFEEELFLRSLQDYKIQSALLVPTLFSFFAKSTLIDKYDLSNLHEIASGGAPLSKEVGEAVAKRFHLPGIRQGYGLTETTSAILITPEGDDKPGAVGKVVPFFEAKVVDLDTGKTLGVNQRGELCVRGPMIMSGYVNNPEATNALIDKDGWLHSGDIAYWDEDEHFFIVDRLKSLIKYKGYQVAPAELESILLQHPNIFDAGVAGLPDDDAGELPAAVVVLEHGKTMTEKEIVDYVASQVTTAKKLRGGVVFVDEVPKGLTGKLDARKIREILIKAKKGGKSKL
# [25] = biological target: T5, Long-chain-fatty-acid--AMP ligase FadD28 (Mycobacterium tuberculosis, UniProt P9WQ59); assay: Fluorescence polarization aasay to screen for inhibitors that compete for the binding of FadD28 to a bisubstrate Measured in Biochemical System Using Plate Reader - 2147-01_Inhibitor_Dose_CherryPick_Activity.; type: functional, Mycobacterium tuberculosis H37Rv
# T5 sequence (P9WQ59 whole entry): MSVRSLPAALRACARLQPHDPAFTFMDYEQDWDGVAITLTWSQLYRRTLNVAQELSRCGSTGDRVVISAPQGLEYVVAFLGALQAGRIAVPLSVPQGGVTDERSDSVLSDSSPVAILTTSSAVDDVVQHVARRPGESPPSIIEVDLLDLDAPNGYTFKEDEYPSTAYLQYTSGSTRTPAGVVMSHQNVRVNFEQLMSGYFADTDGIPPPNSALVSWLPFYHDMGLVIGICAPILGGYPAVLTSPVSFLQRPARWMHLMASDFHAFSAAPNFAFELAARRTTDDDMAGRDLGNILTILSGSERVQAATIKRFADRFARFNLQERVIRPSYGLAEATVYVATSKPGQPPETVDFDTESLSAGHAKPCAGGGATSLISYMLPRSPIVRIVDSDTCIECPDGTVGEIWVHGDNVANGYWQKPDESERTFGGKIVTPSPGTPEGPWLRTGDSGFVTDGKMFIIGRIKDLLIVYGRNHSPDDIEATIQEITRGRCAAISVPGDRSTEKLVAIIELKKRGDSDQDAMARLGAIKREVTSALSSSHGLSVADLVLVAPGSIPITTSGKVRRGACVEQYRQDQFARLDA
# [26] = biological target: T6, Dual specificity protein phosphatase 6 (Rattus norvegicus, UniProt Q64346); assay: inhibition of rat DUSP6 enzyme activity – biochemical, in vitro, primary screen (AID 425)
# T6 sequence (Q64346 whole entry): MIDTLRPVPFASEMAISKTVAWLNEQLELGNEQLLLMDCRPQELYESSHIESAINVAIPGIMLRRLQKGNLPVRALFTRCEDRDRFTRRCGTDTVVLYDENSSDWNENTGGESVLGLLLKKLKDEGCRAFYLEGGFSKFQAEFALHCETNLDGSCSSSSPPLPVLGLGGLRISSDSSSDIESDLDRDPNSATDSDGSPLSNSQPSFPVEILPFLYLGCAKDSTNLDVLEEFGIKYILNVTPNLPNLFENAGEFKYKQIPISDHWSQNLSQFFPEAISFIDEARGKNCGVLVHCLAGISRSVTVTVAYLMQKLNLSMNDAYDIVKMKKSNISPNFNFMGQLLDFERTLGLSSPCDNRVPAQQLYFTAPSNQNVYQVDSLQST
# [27] = viability of HCT116 lacking mutant beta-catenin – cell-based, human colon tumor, dose response (AID 1045); type: functional;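 further: HCT116 colon tumor cells with beta catenin knocked out; cells exposed to compound for 60 hours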
# [28] = biological target: Mitogen-activated protein kinase 10 (Homo sapiens, UniProt P53779); assay: Dose response biochemical screening assay for inhibitors of c-Jun N-Terminal Kinase 3 (JNK3). [Related pubchem assays: 746 ]
# Sequence of Mitogen-activated protein kinase 10 (P53779 whole entry): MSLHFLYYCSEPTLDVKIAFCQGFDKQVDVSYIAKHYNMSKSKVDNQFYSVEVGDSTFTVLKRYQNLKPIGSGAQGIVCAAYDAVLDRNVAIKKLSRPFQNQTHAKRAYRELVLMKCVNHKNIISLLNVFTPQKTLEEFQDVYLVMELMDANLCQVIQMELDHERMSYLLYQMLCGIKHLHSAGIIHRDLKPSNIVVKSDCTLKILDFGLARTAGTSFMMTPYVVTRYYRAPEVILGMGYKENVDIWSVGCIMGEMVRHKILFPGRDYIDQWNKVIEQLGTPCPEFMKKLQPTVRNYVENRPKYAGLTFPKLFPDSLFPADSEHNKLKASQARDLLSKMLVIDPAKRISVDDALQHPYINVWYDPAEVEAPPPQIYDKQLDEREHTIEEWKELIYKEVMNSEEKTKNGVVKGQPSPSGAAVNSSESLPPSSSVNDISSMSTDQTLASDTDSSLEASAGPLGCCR
# [29] = viability of PTEN-deleted HCT116 cells – cell-based, HCT116 PTEN knockout, dose response (AID 1047); type: functional;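 further: HCT116 colon tumor cells with PTEN knocked out; cells exposed to compound for 60 hours before readout; potency for loss of cell viability measured by luminescence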
# [30] = biological target: Protein-tyrosine kinase 2-beta (Homo sapiens, UniProt Q14289);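 further: potency of inhibitors of PYK2 kinase phosphorylation of poly-GT substrate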
# Sequence of Genome polyprotein (Hepatitis C virus, UniProt Q2Q167) (Q2Q167 whole entry): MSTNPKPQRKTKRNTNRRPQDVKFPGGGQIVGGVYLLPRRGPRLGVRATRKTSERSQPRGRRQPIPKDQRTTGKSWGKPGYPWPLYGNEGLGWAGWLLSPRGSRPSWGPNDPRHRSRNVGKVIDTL
smiles,measurement,setting,value
COc1ccc(C2CC(c3cccs3)=NN2C(=O)CSc2nc(=O)n3ccc(C)cc3n2)cc1 (stereo not given),IC50,[1],> 49.8 µM (not active)
same,IC50,[2],8.11 µM (active)
same,IC50,[3],7.51 µM (active)
N#Cc1c(NC(=O)c2cc(-n3cnnc3)ccc2Cl)sc2c1CCCC2,EC50,[4],12.7 µM (active)
Cc1ccc2cc3c(NC(=O)c4cccnc4)nn(C)c3nc2c1,IC50,[5],> 100 µM (not active)
same,IC50,[6],> 79 µM (inactive)
same,IC50,[7],> 100 µM (inactive)
same,IC50,[8],> 100 µM (inactive)
N#Cc1ccc(Nc2nc(-c3ccc(C#N)cc3)cs2)cc1,IC50,[9],> 50 µM (not active)
same,IC50,[10],> 50 µM (not active)
Cc1cc(C)nc(SCC(=O)OCC(=O)c2cc(C)n(Cc3ccccc3)c2C)n1,EC50,[11],> 30 µM (not active)
C/N=c1\scc(-c2cccs2)n1/N=C/c1ccc(O)c(O)c1O,CC50,[12],13 µM (active)
same,IC50,[13],15.5 µM (active)
same,IC50,[14],98.1 µM (inconclusive)
same,EC50,[15],> 150 µM (inactive)
same,CC50,[16],12.1 µM (active)
same,IC50,[17],59.2 µM (active)
same,EC50,[18],1.53 µM (active)
same,IC50,[19],7.08 µM (active)
same,IC50,[20],> 100 µM (inactive)
same,IC50,[21],70.7 µM (active)
same,EC50,[22],> 38 µM (not active)
same,CC50,[23],> 40 µM (active)
same,EC50,[24],0.636 µM (active)
same,AC50,[25],> 100 µM (inactive)
O=C(Nc1cccc(-c2nc3ccccc3[nH]2)c1)c1cccc(NC(=O)c2ccco2)c1,IC50,[26],2.5 µM (active)
same,EC50,[27],53.7 µM (active)
same,IC50,[28],68.5 µM (not active)
same,EC50,[29],57.9 µM (active)
same,IC50,[30],5.03 µM (active)
